According to PubChem BioAssay (NCI):
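Compound exposure: 48 hours, 5 concentrations, 96-well plates. GI50 is the concentration that inhibits growth by half. At the TGI there is no net growth.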

How the values were obtained:
Test in all cases: inhibition of tumour cell growth, NCI panel, 48 h
[1] = test system: MOLT-4 leukemia
[2] = test system: HL-60(TB) leukemia
[3] = test system: NCI-H522 lung
[4] = test system: SK-MEL-5 melanoma
[5] = test system: HCC-2998 colon
[6] = test system: SNB-19 CNS
[7] = test system: HCT-15 colon
[8] = test system: SK-MEL-28 melanoma
[9] = test system: 786-0 renal
[10] = test system: CAKI-1 renal
[11] = test system: SW-620 colon
[12] = test system: UACC-62 melanoma
[13] = test system: ACHN renal
[14] = test system: HOP-92 NSCLC
[15] = test system: MDA-MB-231 breast
[16] = test system: COLO 205 colon
[17] = test system: BT-549 breast
[18] = test system: EKVX NSCLC
[19] = test system: DU-145 prostate
[20] = test system: OVCAR-5 ovarian
[21] = test system: SN12C renal
[22] = test system: OVCAR-3 ovarian
[23] = test system: T-47D breast
[24] = test system: MALME-3M melanoma
[25] = test system: MDA-MB-435
[26] = test system: RXF 393 renal
[27] = test system: NCI-H226 lung
[28] = test system: SF-268 CNS
[29] = test system: LOX IMVI melanoma
[30] = test system: HT29 colon
[31] = test system: IGROV1 ovarian
[32] = test system: KM12 colon
[33] = test system: A498 renal
[34] = test system: UO-31 renal
[35] = test system: A549 NSCLC
[36] = test system: HS 578T breast
[37] = test system: U251 CNS
[38] = test system: TK-10 renal
[39] = test system: SF-295 CNS
[40] = test system: OVCAR-8 ovarian
[41] = test system: SK-MEL-2 melanoma
[42] = test system: NCI/ADR-RES ovarian
[43] = test system: MCF7 breast
[44] = test system: SK-OV-3 ovarian
[45] = test system: CCRF-CEM leukemia
[46] = test system: SNB-75 CNS
[47] = test system: SF-539 CNS
[48] = test system: HOP-62 NSCLC
[49] = test system: UACC-257 melanoma
[50] = test system: NCI-H460 lung
[51] = test system: HCT-116 colon
[52] = test system: OVCAR-4 ovarian
[53] = test system: PC-3 prostate

Compound `Oc1cc(Cn2cnc3c(Cl)nc(Cl)nc32)ccc1C12CC3CC(CC(C3)C1)C2` has a GI50 [1] of 3.72 µM, a TGI [1] of 11.2 µM and a GI50 [2] of 4.36 µM. For the same compound, the TGI [2] was 15.7 µM, the GI50 [3] was 15.2 µM and the TGI [3] was 28.5 µM. For the same compound, the GI50 [4] was 15 µM, the TGI [4] was 32 µM and the GI50 [5] was 16 µM. The TGI [5] was 30.4 µM, the GI50 [6] was 17.6 µM and the TGI [6] was 31.4 µM. It also gave a GI50 [7] of 16.3 µM, a TGI [7] of 29.8 µM and a GI50 [8] of 16.9 µM. The TGI [8] was 31 µM, the GI50 [9] was 18.5 µM and the TGI [9] was 34.4 µM. The GI50 [10] was 15.4 µM, the TGI [10] was 31.3 µM and the GI50 [11] was 24.6 µM. The TGI [11] was 56.8 µM, the GI50 [12] was 16.8 µM and the TGI [12] was 30.5 µM. For the same compound, the GI50 [13] was 17.9 µM, the TGI [13] was 31.7 µM and the GI50 [14] was 14.6 µM. The TGI [14] was 27.8 µM, the GI50 [15] was 15 µM and the TGI [15] was 30.3 µM. The GI50 [16] was 19.9 µM, the TGI [16] was 37.2 µM and the GI50 [17] was 17.5 µM. For the same compound, the TGI [17] was 34.4 µM, the GI50 [18] was 23.8 µM and the TGI [18] was 53.1 µM. For the same compound, the GI50 [19] was 16.2 µM, the TGI [19] was 29.7 µM and the GI50 [20] was 20.2 µM. For the same compound, the TGI [20] was 45.7 µM, the GI50 [21] was 16.5 µM and the TGI [21] was 32.2 µM. The GI50 [22] was 18 µM, the TGI [22] was 36.3 µM and the GI50 [23] was 21.8 µM. For the same compound, the TGI [23] was 80.6 µM, the GI50 [24] was 11.8 µM and the TGI [24] was 27.8 µM. For the same compound, the GI50 [25] was 19.9 µM, the TGI [25] was 48.6 µM and the GI50 [26] was 15.2 µM. For the same compound, the TGI [26] was 29.3 µM, the GI50 [27] was 23.3 µM and the TGI [27] was 63.7 µM. It also gave a GI50 [28] of 14.4 µM, a TGI [28] of 28 µM and a GI50 [29] of 4.12 µM. For the same compound, the TGI [29] was 18.6 µM, the GI50 [30] was 16 µM and the TGI [30] was 29.5 µM. It also gave a GI50 [31] of 15.8 µM, a TGI [31] of 30 µM and a GI50 [32] of 17.5 µM. It also gave a TGI [32] of 34.4 µM, a GI50 [33] of over 100 µM and a TGI [33] of over 100 µM. It also gave a GI50 [34] of 17.3 µM, a TGI [34] of 31.1 µM and a GI50 [35] of 18.1 µM. For the same compound, the TGI [35] was 33.2 µM, the GI50 [36] was 49.6 µM and the TGI [36] was over 100 µM. For the same compound, the GI50 [37] was 16.6 µM, the TGI [37] was 30.2 µM and the GI50 [38] was 19.5 µM. The TGI [38] was 38.8 µM, the GI50 [39] was 20.5 µM and the TGI [39] was 47.9 µM. It also gave a GI50 [40] of 23.2 µM, a TGI [40] of 58 µM and a GI50 [41] of 18.4 µM. The TGI [41] was 38 µM, the GI50 [42] was 21.9 µM and the TGI [42] was 57.2 µM. The GI50 [43] was 15 µM, the TGI [43] was 28.3 µM and the GI50 [44] was 24.7 µM. It also gave a TGI [44] of 55.1 µM, a GI50 [45] of 2.17 µM and a TGI [45] of 5.78 µM. For the same compound, the GI50 [46] was 16.4 µM, the TGI [46] was 32.2 µM and the GI50 [47] was 23.6 µM. The TGI [47] was 45.1 µM, the GI50 [48] was 16.2 µM and the TGI [48] was 29.8 µM. It also gave a GI50 [49] of 19 µM, a TGI [49] of 39.2 µM and a GI50 [50] of 16.4 µM. For the same compound, the TGI [50] was 30.2 µM, the GI50 [51] was 14 µM and the TGI [51] was 26.9 µM. It also gave a GI50 [52] of 16.4 µM, a TGI [52] of 30 µM and a GI50 [53] of 15.5 µM. It also gave a TGI [53] of 28.9 µM.
